{"source": "patent US11559536B2", "about": "“Compositions and methods for the treatment of inflammation in urological pathology” (Duke University, priority 2019, dated 2023)", "key": {"[1]": {"test_system": "caspase-1 (inflammasome activation) in urothelial cells", "assay": "Caspase-1 activity in isolated mouse urothelial cells treated with diabetic DAMPS in vitro", "details": "DAMP 24 h (ATP 1 h)"}, "[2]": {"test_system": "caspase-1 activation in urothelial cells", "assay": "Caspase-1 assay in isolated rat urothelial cells treated with stone DAMPs, with or without inhibitors", "details": "for maximal response of caspase-1 activation: normalized to 1.25 mM ATP 1 h; for concentration sufficient to completely suppress caspase-1 activation in MSU-treated cells: 1.25 μg/mL MSU 24 h", "procedure": "Briefly, rats were sacrificed and the bladders removed and placed in sterile PBS. Bladders were then inverted over an 18-gauge blunt tip needle, inflated with PBS, and a purse string suture was used to tie off the bladder. The inflated bladder was then submerged in Collagenase P (1 mg/ml in complete media) and shaken for 1 hour at 37° C. […] Media was removed and replaced with fresh media (90 μL for agonist studies, 80 μL for inhibitor studies) just prior to the start of experimental treatments.\nUsing PBS (for CPPD) or complete media (for MSU), 1:2 serial dilutions were prepared. Wells were then treated with 10 μL of the appropriate dilution of stone DAMP for a final volume of 100 μL. After treatment, cells were incubated for another 24 hours at 37° C.\nFor inhibition response studies, the general ROS scavenger N-acetylcysteine was prepared to the stock concentration of 5 mM for MSU treatment and to 50 mM for CPPD treatment. Prior to treatment, the stock concentration of NAC was buffered to pH 7.2. […] Using complete media for NAC and PBS for Verapamil, 1:2 serial dilutions were prepared. Cells were treated with 10 μL of NAC or Verapamil and incubated at 37° C. for 1 or 4 hours, respectively. […] Plates were then incubated for an additional 24 hours at 37° C.\nBriefly, media was removed and cells lysed in 50 μl lysis buffer (10 mM MgCl2 and 0.25% Igepal CA-630) for 5 minutes. An additional 50 μL of storage buffer (40 mM HEPES (pH 7.4), 20 mM NaCl, 2 mM EDTA and 20% glycerol) was added, and the plates frozen at −80° C. until use (>30 minutes). […] Plates were then incubated in the dark for 1 hour at 37° C. with mild shaking. Florescence was then measured (excitation 400 nm, emission 505 nm)."}, "BOO [3]": {"test_system": "BOO", "assay": "Sucrose preference assay after BOO", "type": "in vivo, rat", "details": "12 weeks of BOO; glyburide pellet; fluoxetine ≈20 mg/kg/day in drinking water, last 4 weeks"}, "BOO [4]": {"test_system": "BOO", "assay": "Open field assay after BOO", "type": "in vivo, rat", "details": "12 weeks of BOO; glyburide pellet; fluoxetine ≈20 mg/kg/day in drinking water, last 4 weeks"}, "BOO [5]": {"test_system": "BOO", "assay": "Evans blue assay in hippocampus after BOO", "type": "in vivo, rat", "experimental": "(§1) Sides were alternated thereafter.\nRats were weighed and then injected (i.v. 3 ml/kg) with 2% Evan's blue dye in sterile saline by an investigator blinded to the groups (Belayev et al. (1996) Brain Res 739: 88-96). After one hour, rats were euthanized and transcardially perfused with cold PBS to remove intravascular dye. The brain was isolated and the hippocampus dissected, weighed and placed into formamide (0.25 ml) overnight (56° C.). Absorbance (620 nm) was measured and compared to a standard curve to calculate pg Evans blue/μg tissue."}, "BOO [6]": {"test_system": "BOO", "assay": "Bladder weight after bladder outlet obstruction (BOO)", "details": "12 weeks of BOO; glyburide 50 mg 21-day slow release pellet", "procedure": "For most studies rats were assigned to 4 groups; 1) Control, 2) Sham, 3) BOO or 4) BOO+glyburide (Gly). […] For Sham and all BOO groups, animals were anesthetized [ketamine hydrochloride (90 mg/kg), xylazine (10 mg/kg); i.p.] and a 1 mm o.d. catheter (P50 tubing) inserted transurethrally. BOO was created by urethral ligation over a 1 mm catheter. A 5-0 silk suture was passed around the urethra and tied securely for BOO and loosely for Sham. The catheter was removed and the abdominal wall closed. For BOO+Gly, a subcutaneous pocket was made on the side of the neck and a single 50 mg, 21-day slow release pellet (Innovative Research of America, Sarasota, Fla.) inserted and the incision closed. A new pellet was placed (contralateral side) after 21 days. Sides were alternated thereafter.\nBladders from the various groups indicated in FIG. 18 were weighed when they were removed for the various endpoints in this experiment."}, "BOO [7]": {"test_system": "BOO", "assay": "Density of activated microglia (IbA1/AIF1) in hippocampus after BOO", "type": "in vivo, rat", "details": "12 weeks of BOO; glyburide pellet", "experimental": "as §1\n(§2) Brains were fixed (10% neutral buffered formalin; 48 h, rt) and grossly cut (coronally) to the hippocampus before being embedded in paraffin with the plane of the hippocampus on the block face. Citrate antigen retrieval was used prior to staining 10 μm coronal sections with anti-IbA1/AIF1 (1:500) (NBP2-19019; Novus Biologicals, Centennial, Colo.) or Anti-Ki67 (1:500) (ab15580; Abcam, Cambridge, Mass.) via standardard methodology. IbA1 was visualized via HRP development (Vectastain ABC Kit; Vector, Burlingame, Calif.), biotinylated secondary antibody provided). Ki-67 was visualized using a goat anti-rabbit secondary antibody conjugated to Alexa Fluor 488 (111-545-144; Jackson ImmunoResearch Labs, West Grove, Pa.). […]\n(§3) A Zeiss Axio Imager 2 microscope (Zeiss, Oberkochen, Germany) running Zen software (Zeiss) using the tiling and stitching feature was used to scan one entire hemisphere. […] Slides were quantitated by a researcher blinded to the groups. For microglia, we demarcated 600,000-700,000 μm^2 of the fascia dentata, counted the number of black/brown spots with two or greater associated tendrils and calculated microglial density. For Ki-67^+ cells we demarcated the entire dentate gyrus, CA1, CA2 and CA3 regions, quantitated nuclei (DAPI^+) that were Ki-67^+ (green florescence) and calculated the density."}, "BOO [8]": {"test_system": "BOO", "assay": "Density of Ki-67+ proliferating cells in hippocampus after BOO", "type": "in vivo, rat", "details": "12 weeks of BOO; glyburide pellet", "experimental": "as §1, §2, §3"}, "[9]": {"details": "cited from earlier work"}, "[10]": {"details": "cited from earlier work", "remark": "listed apart in the source"}}, "data": [{"molecule": "AGES", "values": [{"measurement": "caspase-1 activity (inflammasome activation)", "setting": "[1]", "value": "activation of caspase-1"}]}, {"molecule": "O=P([O-])([O-])OP(=O)([O-])[O-].[Ca+2].[Ca+2]", "note": "[CPPD, calcium pyrophosphate]", "values": [{"measurement": "maximal response of caspase-1 activation", "setting": "[2]; 24 h treatment", "value": "approximately 50 % of the ATP response"}, {"measurement": "EC50", "setting": "[2]; Rattus norvegicus, 24 h, read-out: EC50 of caspase-1 activation", "value": 62.5, "unit": "µg/mL"}]}, {"molecule": "CCCCCCCCCCCCC/C=C/[C@@H](O)[C@H](CO)NC(=O)CCCCC", "note": "[C6-ceramide, N-hexanoyl-D-erythro-sphingosine]", "values": [{"measurement": "caspase-1 activity (inflammasome activation)", "setting": "[1]", "value": "activation of caspase-1"}]}, {"molecule": "CNCCC(Oc1ccc(C(F)(F)F)cc1)c1ccccc1", "note": "(stereo not shown) [fluoxetine]", "values": [{"measurement": "sucrose preference", "setting": "BOO [3]", "value": "restored sucrose preference back to levels not statistically different from control"}, {"measurement": "open field: time exploring the middle of the field", "setting": "BOO [4]", "value": "restored the exploratory behavior of these rats back to levels not statistically different from control"}]}, {"molecule": "COc1ccc(Cl)cc1C(=O)NCCc1ccc(S(=O)(=O)NC(=O)NC2CCCCC2)cc1", "note": "[GLY, glyburide]", "values": [{"measurement": "Evan's blue dye extravasation in the hippocampus", "setting": "BOO [5]; 6 weeks of BOO, glyburide treatment", "value": "blocked"}, {"measurement": "leakage of Evan's blue into the hippocampus", "setting": "BOO [5]; 12 weeks of BOO, glyburide pellet", "value": "reduced back to control levels"}, {"measurement": "bladder weight", "setting": "BOO [6]", "value": "suppresses this increase"}, {"measurement": "density of activated microglia in the hippocampus", "setting": "BOO [7]", "value": "reduced back to control levels"}, {"measurement": "concentration of proliferating cells (Ki-67+) in the hippocampus", "setting": "BOO [8]", "value": "blocked"}, {"measurement": "sucrose preference", "setting": "BOO [3]", "value": "restored"}, {"measurement": "crossing of the blood brain barrier", "setting": "[9]; intact barrier", "value": "does not cross the blood brain barrier"}, {"measurement": "binding in the serum", "setting": "[9]; serum", "value": "mostly albumin-bound"}, {"measurement": "open field: time exploring the middle of the field", "setting": "BOO [4]", "value": "restored this behavior"}]}, {"molecule": "O=C([O-])C(=O)[O-].[Ca+2]", "note": "[calcium oxalate]", "values": [{"measurement": "caspase-1 activation in urothelial cells", "setting": "[2]; 24 h treatment", "value": "activates caspase-1 in urothelial cells in a dose-dependent manner"}]}, {"molecule": "O=S(=O)([O-])CCS.[Na+]", "note": "[Mesna, 2-mercaptoethane sulfonate sodium]", "values": [{"measurement": "effects on bone marrow, hepatic, renal or CNS function", "setting": "[10]; doses up to 100 mg/kg", "value": "no apparent effects on bone marrow, hepatic, renal or CNS function"}, {"measurement": "fate in plasma", "setting": "[10]; only a very small portion remaining in circulation", "value": "rapid oxidation in plasma"}]}, {"molecule": "O=c1[nH]c(=O)c2[nH]c([O-])nc2[nH]1.[Na+]", "note": "[MSU, monosodium urate]", "values": [{"measurement": "EC50 of caspase-1 activation", "setting": "[2]; 24 h treatment of rat urothelial cells", "value": 0.156, "unit": "µg/mL"}, {"measurement": "maximal response of caspase-1 activation", "setting": "[2]; 24 h treatment", "value": "25 % of the ATP response"}, {"measurement": "caspase-1 activity (inflammasome activation)", "setting": "[1]", "value": "activation of caspase-1"}]}, {"molecule": "Nc1ncnc2c1ncn2[C@@H]1O[C@H](COP(=O)(O)OP(=O)(O)OP(=O)(O)O)[C@@H](O)[C@H]1O", "note": "[ATP]", "values": [{"measurement": "caspase-1 activity (inflammasome activation)", "setting": "[1]", "value": "elicited a classic dose response"}]}, {"molecule": "CN(N=O)C(=O)N[C@H]1C(O)O[C@H](CO)[C@@H](O)[C@@H]1O", "note": "(mixture of isomers) [streptozotocin]", "values": [{"measurement": "caspase-1 activity (inflammasome activation)", "setting": "[1]", "value": "directly activates the inflammasome"}]}, {"molecule": "CC(=O)N[C@@H](CS)C(=O)O", "note": "[NAC, N-acetylcysteine]", "values": [{"measurement": "concentration sufficient to completely suppress caspase-1 activation in MSU-treated cells", "setting": "[2]", "value": 500, "unit": "µM"}, {"measurement": "concentration sufficient to completely suppress caspase-1 activation in CPPD-treated cells", "setting": "[2]; 62.5 μg/mL CPPD 24 h, NAC 1 h before", "value": 5, "unit": "mM"}]}, {"molecule": "COc1ccc(CCN(C)CCCC(C#N)(c2ccc(OC)c(OC)c2)C(C)C)cc1OC", "note": "(stereo not shown) [Verapamil]", "values": [{"measurement": "concentration sufficient to completely suppress caspase-1 activation in MSU-treated cells", "setting": "[2]", "value": 150, "unit": "µM"}, {"measurement": "IC50", "setting": "[2]; Rattus norvegicus, read-out: IC50 of caspase-1 activation in CPPD-treated cells", "value": 100, "unit": "µM"}]}, {"molecule": "HMGB-1: high mobility group box 1 protein (ProSci), diabetic DAMP (protein, UniProt P09429 1-215, looked up) High mobility group protein B1: MGKGDPKKPRGKMSSYAFFVQTCREEHKKKHPDASVNFSEFSKKCSERWKTMSAKEKGKFEDMAKADKARYEREMKTYIPPKGETKKKFKDPNAPKRPPSAFFLFCSEYRPKIKGEHPGLSIGDVAKKLGEMWNNTAADDKQPYEKKAAKLKEKYEKDIAAYRAKGKPDAAKKGVVKAEKSKKKKEEEEDEEDEEDEEEEEDEEDEDEEEDDDDE", "values": [{"measurement": "caspase-1 activity (inflammasome activation)", "setting": "[1]", "value": "activation of caspase-1"}]}]}
